These compounds were tested on Type IV PDE (assay: PDE inhibitory activity, type IV isozyme (3H-cAMP hydrolysis)). Conditions: partially purified from rat neutrophils, 30° C., 30 minutes.
Type: biochemical
Protocol: Type I, III, IV, and V PDE isozymes were prepared to study the PDE inhibitory activities and selectivities with the compound of the invention [Trends Pharmacol. Sci., 12, 19-27 (1992)]. Type I PDE was purchased from Sigma Corp. Type III, IV, and V PDE isozymes were partially purified from rats platelets (Type III and V) or neutrophils (Type IV). Each enzyme source was homogenized in a buffer (pH 6.5) containing 20 mM bisTris, 2 mM EDTA (ethylenediamine tetraacetate), 0.1 mM PMSF (phenylmethylsulfonyl fluoride), 5 mM 2-mercaptoethanol, 0.001 mM pepstatin, and 0.01 mM leupeptin and was centrifuged at 30,000×G for 30 minutes to obtain a supernatant, which was applied to an ion exchange column (Q-sepharose First Flow, Pharmacia Corp.) and was eluted with 0 to 1M sodium acetate. Partially purified isozymes were identified by observing the effects of conventional inhibitors.
Each PDE isozyme and the test compound dissolved in DMSO (dimethyl sulfoxide) were added to 50 mM Tris-HCl buffer containing 5 mM magnesium chloride. ^3 H-cAMP (for type III and IV PDE) or ^3 H-cGMP (for type I and V PDE) were added as substrates and were reacted at 30° C. for 30 minutes. The reaction was terminated by placing the test tube in boiling water of 100° C. for 5 minutes. The nucleotides formed by PDE were broken down by 5'-nucleotidase to ^3 H-adenosine or ^3 H-guanosine. The unreacted substrate and reaction product were separated through an ion-exchange column (QAE sephadex, Pharmacia Corp.) The eluted ^3 H-nucleoside was measured for its radioactivity by a liquid scintillation counter. The inhibiting activities of the compound of the present invention are shown by the IC50 value (M). Further, the inhibitory activities of the test samples against Type I, III, and V are 1/10 or less than that against type IV.

SMILES	IC50
COc1ccc(C2(C)CCNC(=O)O2)cc1OCC1CC1 (centres unmarked) [Compound No. 50, 6-(3-cyclopropylmethyloxy-4-methoxyphenyl)-6-methyl-3,4,5,6-tetrahydro-2H-1,3-oxazin-2-one]	1100 nM
COc1ccc(C2CCN(Cc3ccncc3)C(=O)O2)cc1OC1CCCC1 (centres unmarked) [Compound No. 14, 6-(3-cyclopentyloxy-4-methoxyphenyl)-3-(4-pyridylmethyl)-3,4,5,6-tetrahydro-2H-1,3-oxazin-2-one]	6100 nM
COc1ccc(C2CCN(Cc3cccc4ccccc34)C(=O)O2)cc1OC1CCCC1 (centres unmarked) [Compound No. 13, 6-(3-cyclopentyloxy-4-methoxyphenyl)-3-(1-naphthylmethyl)-3,4,5,6-tetrahydro-2H-1 3-oxazin-2-one]	1700 nM
CCCCOc1cc(C2(C)CCN(C)C(=O)O2)ccc1OC (centres unmarked) [Compound No. 54, 6-(3-butoxy-4-methoxyphenyl)-3,6-dimethyl-3,4,5,6-tetrahydro-2H-1,3-oxazin-2-one]	2000 nM
COc1ccc(C2CCNC(=O)O2)cc1OC1c2ccccc2CCc2ccccc21 (centres unmarked) [Compound No. 58, 6-[3-(10,11-dihydro-5H-dibenzo[a,d]cyclohepten-5-yloxy)-4-methoxyphenyl]-3,4,5,6-tetrahydro-2H-1,3-oxazin-2-one]	9400 nM
COc1ccc(C2CCNC(=O)O2)cc1OC1CCOC1 (centres unmarked) [Compound No. 93, 6-[3-(3-tetrahydrofuryloxy)-4-methoxyphenyl]-3,4,5,6-tetrahydro-2H-1,3-oxazin-2-one]	3700 nM
CCCCOc1cc(C2CCNC(=O)O2)ccc1OC (centres unmarked) [Compound No. 3, 6-(3-butoxy-4-methoxyphenyl)-3,4,5,6-tetrahydro-2H-1,3-oxazin-2-one]	6800 nM
COc1ccc(C2CCNC(=O)O2)cc1OCCCN1CCN(Cc2ccccc2)CC1 (centres unmarked) [Compound No. 60, 6-[3-[3-(4-benzyl-1-piperazinyl)propoxy]-4-methoxyphenyl]-3,4,5,6-tetrahydro-2H-1,3-oxazin-2-one]	52000 nM
COc1ccc(C2CCNC(=O)O2)cc1OCCCCCc1ccccc1 (centres unmarked) [Compound No. 41, 6-[4-methoxy-3-(5-phenylpentyloxy)phenyl]-3,4,5,6-tetrahydro-2H-1,3-oxazin-2-one]	730 nM
COc1ccc([C@H]2OC(=O)NC[C@H]2c2ccccc2)cc1OC1CCCC1 (relative stereo) [Compound No. 91, rel-(5R,6S)-6-(3-cyclopentyloxy-4-methoxyphenyl)-5-phenyl-3,4,5,6-tetrahydro-2H-1,3-oxazin-2-one]	2700 nM
COc1ccc(C2CCNC(=O)O2)cc1O[C@H]1CC[C@H](c2ccccc2)CC1 (relative stereo) [Compound No. 78, 6-[4-methoxy-3-(trans-4-phenylcyclohexyloxy)phenyl]-3,4,5,6-tetrahydro-2H-1,3-oxazin-2-one]	1900 nM
COc1ccc(C2CCN(C)C(=O)O2)cc1OCCc1scnc1C (centres unmarked) [compound 73, 6-[4-methoxy-3-[2-(4-methyl-5-thiazolyl)ethoxy]phenyl]-3-methyl-3,4,5,6-tetrahydro-2H-1,3-oxazin-2-one]	7300 nM
COc1ccc(C2CCN(C)C(=O)O2)cc1OCC1CCCC1 (centres unmarked) [Compound No. 77, 6-(3-cyclopentylmethyloxy-4-methoxyphenyl)-3-methyl-3,4,5,6-tetrahydro-2H-1,3-oxazin-2-one]	3300 nM
COc1ccc(C2CCNC(=O)O2)cc1OCCc1ccccn1 (centres unmarked) [Compound No. 55, 6-[4-methoxy-3-[2-(2-pyridyl)ethoxy]phenyl]-3,4,5,6-tetrahydro-2H-1,3-oxazin-2-one]	1700 nM
COc1ccc(C2CCN(Cc3ccco3)C(=O)O2)cc1OC1CCCC1 (centres unmarked) [Compound No. 35, 6-(3-cyclopentyloxy-4-methoxyphenyl)-3-(2-furylmethyl)-3,4,5,6-tetrahydro-2H-1,3-oxazin-2-one]	2000 nM
COc1ccc(C2CCN(C)C(=O)O2)cc1OCCc1ccc(F)cc1 (centres unmarked) [Compound No. 75, 6-[3-[2-(4-fluorophenyl)ethoxy]-4-methoxyphenyl]-3-methyl-3,4,5,6-tetrahydro-2H-1,3-oxazin-2-one]	1800 nM
COc1ccc(C2(C)CCN(Cc3ccncc3)C(=O)O2)cc1OC1CCCC1 (centres unmarked) [Compound No. 22, 6-(3-cyclopentyloxy-4-methoxyphenyl)-6-methyl-3-(4-pyridylmethyl)-3,4,5,6-tetrahydro-2H-1,3-oxazin-2-one]	5900 nM

SMILES	IC50
COc1ccc(C2CCN(C)C(=O)O2)cc1OC1c2ccccc2CCc2ccccc21 (centres unmarked) [Compound No. 59, 6-[3-(10,11-dihydro-5H-dibenzo[a,d]cyclohepten-5-yloxy)-4-methoxyphenyl]-3-methyl-3,4,5,6-tetrahydro-2H-1,3-oxazin-2-one]	27000 nM
COc1ccc(C2CCN(C(=O)c3ccccc3)C(=O)O2)cc1OC1CCCC1 (centres unmarked) [Compound No. 18, 3-benzoyl-6-(3-cyclopentyloxy-4-methoxyphenyl)-3,4,5,6-tetrahydro-2H-1,3-oxazin-2-one]	410 nM
COc1ccc(C2CCN(C)C(=O)O2)cc1OCCOCc1ccccc1 (centres unmarked) [Compound No. 84, 6-[3-(2-benzyloxyethoxy)-4-methoxyphenyl]-3-methyl-3,4,5,6-tetrahydro-2H-1,3-oxazin-2-one]	3100 nM
COc1ccc(C2OC(=O)N(C)CC2(C)C)cc1OC1CCCC1 (centres unmarked) [Compound No. 86, 6-(3-cyclopentyloxy-4-methoxyphenyl)-3,5,5-trimethyl-3,4,5,6-tetrahydro-2H-1,3-oxazin-2-one]	860 nM
COc1ccc(C2CCN(C)C(=O)O2)cc1OCCc1ccccc1 (centres unmarked) [Compound No. 44, 6-(4-methoxy-3-phenethyloxyphenyl)-3-methyl-3,4,5,6-tetrahydro-2H-1,3-oxazin-2-one]	1500 nM
COc1ccc(C2CCN(C)C(=O)O2)cc1OCC1(C)CC1 (centres unmarked) [Compound No. 64, 6-[4-methoxy-3-[(1-methylcyclopropyl)methyloxy]phenyl]-3-methyl-3,4,5,6-tetrahydro-2H-1,3-oxazin-2-one]	4600 nM
COc1ccc(C2CCNC(=O)O2)cc1OC1(C)CCCC1 (centres unmarked) [Compound No. 80, 6-[4-methoxy-3-(1-methylcyclopentyloxy)phenyl]-3,4,5,6-tetrahydro-2H-1,3-oxazin-2-one]	1500 nM
COc1ccc(C2CCNC(=O)O2)cc1OCCc1cccc2ccccc12 (centres unmarked) [Compound No. 67, 6-[4-methoxy-3-[2-(1-naphthyl)ethoxy]phenyl]-3,4,5,6-tetrahydro-2H-1,3-oxazin-2-one]	1100 nM
COc1ccc(C2CCN(C)C(=O)O2)cc1OCC1CCC1 (centres unmarked) [Compound No. 62, 6-(3-cyclobutylmethyloxy-4-methoxyphenyl)-3-methyl-3,4,5,6-tetrahydro-2H-1,3-oxazin-2-one]	3300 nM
COc1ccc(C2CCNC(=O)O2)cc1OCCc1ccc(F)cc1 (centres unmarked) [Compound No. 74, 6-[3-[2-(4-fluorophenyl)ethoxy]-4-methoxyphenyl]-3,4,5,6-tetrahydro-2H-1,3-oxazin-2-one]	1300 nM
COc1ccc(C2CCNC(=O)O2)cc1OCCOCC1CC1 (centres unmarked) [Compound No. 90, 6-[3-[2-(cyclopropylmethyloxy)ethoxy]-4-methoxyphenyl]-3,4,5,6-tetrahydro-2H-1,3-oxazin-2-one]	1900 nM
COc1ccc([C@@H]2OC(=O)NC[C@H]2c2ccccc2)cc1OC1CCCC1 (relative stereo) [Compound No. 92, rel-(5R,6R)-6-(3-cyclopentyloxy-4-methoxyphenyl)-5-phenyl-3,4,5,6-tetrahydro-2H-1,3-oxazin-2-one]	900 nM
COc1ccc(C2CCN(Cc3c(C)c4ccccc4n3C(C)=O)C(=O)O2)cc1OC1CCCC1 (centres unmarked) [Compound No. 34, 3-(1-acetyl-3-methyl-2-indolylmethyl)-6-(3-cyclopentyloxy-4-methoxyphenyl)-3,4,5,6-tetrahydro-2H-1,3-oxazin-2-one]	860 nM
COc1ccc(C2CCNC(=O)O2)cc1OC1CCN(Cc2ccccc2)CC1 (centres unmarked) [Compound No. 89, 6-[3-(1-benzyl-4-piperidyloxy)-4-methoxyphenyl]-3,4,5,6-tetrahydro-2H-1,3-oxazin-2-one]	35000 nM
COc1ccc(C2OC(=O)N(C)CC2(C)C)cc1OC1Cc2ccccc2C1 (centres unmarked) [Compound No. 88, 6-[3-(2-indanyloxy)-4-methoxyphenyl]-3,5,5-trimethyl-3,4,5,6-tetrahydro-2H-1,3-oxazin-2-one]	190 nM
COc1ccc(C2CCN(CCN3CCOCC3)C(=O)O2)cc1OC1CCCC1 (centres unmarked) [Compound No. 33, 6-(3-cyclopentyloxy-4-methoxyphenyl)-3-[2-(4-morpholino)ethyl]-3,4,5,6-tetrahydro-2H-1,3-oxazin-2-one]	8800 nM

Each compound was assayed on antigen-induced bronchospasm in guinea pig (assay: Inhibitory effect on antigen-induced bronchospasm (Konzett-Roessler, ovalbumin-sensitized)). Conditions: Cavia porcellus; intravenous, 10 minutes before antigen (0.2 mg/kg OA i.v.); read-out: Action for suppressing antigen-induced bronchospasms ED50.
Type: in vivo, guinea pig (Hartley male)
Protocol: A Hartley male guinea pig was sensitized by intramuscular administration of […] Ovalbumin (OA) on first day and fourth day, and used after 24th day. A trachial canula was introduced in the guinea pig anesthetized with pentobarbital and artificial ventilation was performed 25 to 29 days after the first sensitization. The overflow of the ventilation was measured by the Konzett-Roessler method while 0.2 mg/kg OA were administered intravenously. The test compound was dissolved in polyethylene glycol 400 and intravenously administered 10 minutes before administration of the antigens.

SMILES	ED50
COc1ccc(C2(C)CCNC(=O)O2)cc1OCC1CC1 (centres unmarked) [Compound No. 50, 6-(3-cyclopropylmethyloxy-4-methoxyphenyl)-6-methyl-3,4,5,6-tetrahydro-2H-1,3-oxazin-2-one]	0.3 mg/kg
COc1ccc(C2CCN(Cc3ccncc3)C(=O)O2)cc1OC1CCCC1 (centres unmarked) [Compound No. 14, 6-(3-cyclopentyloxy-4-methoxyphenyl)-3-(4-pyridylmethyl)-3,4,5,6-tetrahydro-2H-1,3-oxazin-2-one]	2.4 mg/kg

Reference: patent publication US6251897A, “6-phenyltetrahydro-1,3-oxazin-2-one derivative and pharmaceutical composition containing the same” (Nikken Chemicals Co., LTD, priority 1996, dated 2001)
